Experimental data published in US10450297B2, “Sulfonyl amide derivatives for the treatment of abnormal cell growth” (Pfizer, Inc., priority 2007, dated 2019).

Biological target: FAK kinase (catalytic construct FAK(410-689)) (Homo sapiens (Human), UniProt Q05397)
Assay: FAKcd kinase ELISA (inhibition of poly-glu-tyr phosphorylation by FAK(410-689))
Format: biochemical
Settings: 50 μM final ATP
Experimental: A. In-Vitro Activity of FAK:
The assay protocol has three parts:
3. […] 4. […] 5. […] 6. […] 7. […] 9. […] 10. […] 12. […] 13. […] 14. Aliquot the FAKcd protein and store frozen at −80° C. II. FAK Activation 1. […] At t120 (t=120 minutes), add 10 μl of 150 mM ATP. […] Add 180 μl aliquots of the desalted material to NiNTA spin column and incubate on spin column 4. […] FAKcd Kinase ELISA 1. Coat 96-well Nunc MaxiSorp plates with poly-glu-tyr (pGT) at […]: Prepare 10 μg/ml of pGT in PBS and aliquot 100 μl/well. Incubate the plates at 37° C. overnight, aspirate the supernatant, wash the plates 3 times with Wash Buffer, and flick to dry before storing at 4° C. 2. Prepare compound stock solutions of 2.5 mM in 100% DMSO. The stocks are subsequently diluted to 60× of the final concentration in 100% DMSO, and diluted 1:5 in Kinase Phosphorylation Buffer. 3. […] Add 80 μl to each well for a final ATP concentration of 50 μM. 4. […] 5. Dilute on ice, FAKcd protein to 1:1000 in Kinase Phosphorylation Buffer. Dispense 30 μl per well. 6. Note: Linearity and the appropriate dilution must be pre-determined for each batch of protein. The enzyme concentration selected should be such that quantitation of the assay signal will be approximately 0.8-1.0 at OD450, and in the linear range of the reaction rate. 7. Prepare both a No ATP control (noise) and a No Compound Control (Signal): 8. (Noise) One blank row of wells receives 10 μl of 1:5 diluted compounds in DMSO, 80 μl of Phosphorylation buffer (minus ATP), and 30 μl FAKcd solution. 9. […] 10. Incubate reaction at room temperature for 15 minutes with gentle shaking on a plate shaker. 11. Terminate the reaction by aspirating off the reaction mixture and washing 3 times with wash buffer. 12. Dilute phospho-tyrosine HRP-conjugated (pY20HRP) antibody to 0.250 μg/ml (1:1000 of Stock) in blocking buffer. Dispense 100 μl per well, and incubate with shaking for 30 minutes at 25°. 13. Aspirate the supernatant and wash the plate 3 times with wash buffer. 14. Add 100 μl per well of room temperature TMB solution to initiate color development. Color development is terminated after approximately 15-30 sec. by the addition of 100 μl of 0.09M H2SO4 per well. 15. The signal is quantitated by measurement of absorbance at 450 nm on the BioRad ricroplate reader or a microplate reader capable of reading at OD450. 16. Inhibition of tyrosine kinase activity would result in a reduced absorbance signal. […] The values are reported as IC50s, μM concentration. FAK Inducible cell-based ELISA: Final Protocol Materials: […]

FAK kinase (catalytic construct FAK(410-689)), sequence (Q05397 410-689): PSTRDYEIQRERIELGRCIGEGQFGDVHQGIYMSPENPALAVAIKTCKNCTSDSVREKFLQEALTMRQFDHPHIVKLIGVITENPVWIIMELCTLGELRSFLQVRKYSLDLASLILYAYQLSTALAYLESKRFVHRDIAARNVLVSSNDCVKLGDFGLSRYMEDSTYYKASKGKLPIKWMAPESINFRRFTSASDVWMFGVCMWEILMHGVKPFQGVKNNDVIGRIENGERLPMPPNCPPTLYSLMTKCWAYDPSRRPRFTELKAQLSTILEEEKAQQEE

Row | Structure (SMILES) | IC50 [nM]
1 | Cc1ccc(C(N)=O)cc1Nc1ncc(C(F)(F)F)c(NCc2nccnc2N(C)S(C)(=O)=O)n1 [Compound 309, 4-methyl-3-({4-[({3-[methyl(methylsulfonyl)amino]pyrazin-2-yl}methyl)amino]-5-(trifluoromethyl)pyrimidin-2-yl}amino)benzamide] | 3.51
2 | CNCc1ccc(Nc2ncc(C(F)(F)F)c(NCc3cccnc3N(C)S(C)(=O)=O)n2)cc1 [Compound 414, N-methyl-N-[3-({[2-({4-[(methylamino)methyl]phenyl}amino)-5-(trifluoromethyl)pyrimidin-4-yl]amino}methyl)pyridin-2-yl]methanesulfonamide] | < 0.595
3 | CN(c1ncccc1CNc1nc(Nc2ccncc2)ncc1C(F)(F)F)S(C)(=O)=O [Compound 285, N-methyl-N-[3-({[2-(pyridin-4-ylamino)-5-(trifluoromethyl)pyrimidin-4-yl]amino}methyl)pyridin-2-yl]methanesulfonamide] | 1.27
4 | CC(NC(=O)c1cccc(Nc2ncc(C(F)(F)F)c(NCc3cccnc3N(C)S(C)(=O)=O)n2)c1)C1CC1 (stereo not drawn) [Compound 151, N-(1-cyclopropylethyl)-3-({4-[({2-[methyl(methylsulfonyl)-amino]pyridin-3-yl}methyl)amino]-5-(trifluoromethyl)pyrimidin-2-yl}amino)benzamide] | 5.24
5 | Cc1cc(C(N)=O)ccc1Nc1ncc(C(F)(F)F)c(NCc2cc(N(C)S(C)(=O)=O)ccn2)n1 [Compound 405, 3-methyl-4-({4-[({4-[methyl(methylsulfonyl)amino]pyridin-2-yl}methyl)amino]-5-(trifluoromethyl)pyrimidin-2-yl}amino)benzamide] | 17.3
6 | C[C@@H](N)c1ccc(Nc2ncc(C(F)(F)F)c(NCc3ncccc3N(C)S(C)(=O)=O)n2)cc1 [Compound 352, N-[2-({[2-({4-[(1R)-1-aminoethyl]phenyl}amino)-5-(trifluoromethyl)pyrimidin-4-yl]amino}methyl)pyridin-3-yl]-N-methylmethane-sulfonamide] | < 0.595
7 | Cc1cc(Nc2ncc(C(F)(F)F)c(NCc3cccnc3N(C)S(C)(=O)=O)n2)ccn1 [Compound 221, N-methyl-N-{3-[({2-[(2-methylpyridin-4-yl)amino]-5-(trifluoromethyl)pyrimidin-4-yl}amino)methyl]pyridin-2-yl}methanesulfonamide] | 188
8 | CC(=O)NCC(=O)N1CCC(Nc2ncc(C(F)(F)F)c(NCc3cccnc3N(C)S(C)(=O)=O)n2)CC1 [Compound 56, N-{2-[4-({4-[({2-[methyl(methylsulfonyl)amino]pyridin-3-yl}methyl)amino]-5-(trifluoromethyl)pyrimidin-2-yl}amino)piperidin-1-yl]-2-oxoethyl}acetamide] | 188
9 | CN(C)C(=O)CNC(=O)c1cccc(Nc2ncc(C(F)(F)F)c(NCc3cccnc3N(C)S(C)(=O)=O)n2)c1 [Compound 133, N-[2-(dimethylamino)-2-oxoethyl]-3-({4-[({2-[methyl(methylsulfonyl)amino]pyridin-3-yl}methyl)amino]-5-(trifluoromethyl)pyrimidin-2-yl}amino)benzamide] | 1.95
10 | CNC(=O)c1ccc(Nc2ncc(C(F)(F)F)c(NCc3nccnc3N(C)S(C)(=O)=O)n2)c(F)c1 [Compound 369, 3-fluoro-N-methyl-4-({4-[({3-[methyl(methylsulfonyl)amino]pyrazin-2-yl}methyl)amino]-5-(trifluoromethyl)pyrimidin-2-yl}amino)benzamide] | 1.49
11 | Cc1cc(C(N)=O)ccc1Nc1ncc(C(F)(F)F)c(NCc2ncccc2N(C)S(C)(=O)=O)n1 [Compound 343, 3-methyl-4-({4-[({3-[methyl(methylsulfonyl)amino]pyridin-2-yl}methyl)amino]-5-(trifluoromethyl)pyrimidin-2-yl}amino)benzamide] | 0.993
12 | CC(=O)Nc1ccc(Nc2ncc(C(F)(F)F)c(NCc3cccnc3N(C)S(C)(=O)=O)n2)cn1 [Compound 102, N-[5-({4-[({2-[methyl(methylsulfonyl)amino]pyridin-3-yl}methyl)amino]-5-(trifluoromethyl)pyrimidin-2-yl}amino)pyridin-2-yl]acetamide] | 2.33
13 | CN(c1ncccc1CNc1nc(Nc2cccc(CNC(N)=O)c2)ncc1C(F)(F)F)S(C)(=O)=O [Compound 222, N-{3-[({2-[(3-{[(aminocarbonyl)amino]-methyl}phenyl)amino]-5-(trifluoromethyl)pyrimidin-4-yl}amino)methyl]pyridin-2-yl}-N-methylrnethanesulfonamide] | 0.6
14 | Cc1cccc(CNc2nc(Nc3ccc(C(N)=O)cc3)ncc2C(F)(F)F)c1N(C)S(C)(=O)=O [Compound 108, 4-{[4-({3-methyl-2-[methyl(methylsulfonyl)amino]benzyl}amino)-5-(trifluoromethyl)pyrimidin-2-yl]amino}benzamide] | 0.6
15 | CN(c1ncccc1CNc1nc(Oc2ccc(C(N)=O)cc2)ncc1C(F)(F)F)S(C)(=O)=O [Compound 350, 4-({4-[({2-[methyl(methylsulfonyl)amino]pyridin-3-yl}methyl)amino]-5-(trifluoromethyl)pyrimidin-2-yl}oxy)benzamide] | 63.7
16 | CS(=O)(=O)c1cccc(CNc2nc(Nc3ccc(C#N)c(O)c3)ncc2C(F)(F)F)c1 [Compound 393, 2-hydroxy-4-{[4-{[3-(methylsulfonyl)benzyl]amino}-5-(trifluoromethyl)pyrimidin-2-yl]amino}benzonitrile] | 7.41
17 | CN(c1ncccc1CNc1nc(Nc2ccc(C(=O)N3CC[C@H](F)C3)cc2)ncc1C(F)(F)F)S(C)(=O)=O (stereo in doubt) [Compound 235, N-[3-({[2-({4-[(3-fluoropyrrolidin-1-yl)carbonyl]phenyl}amino)-5-(trifluoromethyl)pyrimidin-4-yl]amino}methyl)pyridin-2-yl]-N-methylmethane-sulfonamide] | 0.6
18 | Cc1ccc(CNc2nc(Nc3ccc(C(=O)N(C)C)cc3)ncc2C(F)(F)F)c(NS(C)(=O)=O)c1 [Compound 226, N,N-dimethyl-4-{[4-({4-methyl-2-[(methylsulfonyl)amino]benzyl}amino)-5-(trifluoromethyl)pyrimidin-2-yl]amino}benzamide] | 2.92
19 | CN(c1ncccc1CNc1nc(Nc2cccc(C(=O)N3C[C@@H](F)[C@H](F)C3)c2)ncc1C(F)(F)F)S(C)(=O)=O [Compound 153, N-{3-[({2-[(3-{[(3R,4R)-3,4-difluoropyrrolidin-1-yl]carbonyl}phenyl)amino)-5-(trifluoromethyl)pyrimidin-4-yl}amino)methyl]pyridin-2-yl}-N-methylmethane-sulfonamide] | 3.35
20 | CN(c1ncccc1CNc1nc(Nc2cccc(C#N)c2)ncc1C(F)(F)F)S(C)(=O)=O [Compound 286, N-{3-[({2-[(3-cyanophenyl)amino]-5-(trifluoromethyl)pyrimidin-4-yl}amino)methyl]pyridin-2-yl}-N-methylmethanesulfonamide] | 1.64
21 | CN(c1ncccc1CNc1nc(Nc2ccc(C(=O)N3CCC(C)(O)C3)cc2)ncc1C(F)(F)F)S(C)(=O)=O (stereo not drawn) [Compound 268, N-[3-({[2-({4-[(3-hydroxy-3-methylpyrrolidin-1 - yl)carbonyl]phenyl}amino)-5-(trifluoromethyl)pyrimidin-4-yl]amino}methyl)pyridin-2-yl]-N-methylmethane-sulfonamide] | 2.62
